Measured values published in patent US20260217703A1, “INHIBITORS OF a-HEMOL YSIN OF STAPHYLOCOCCUS AUREUS” (HELMHOLTZ-ZENTRUM FÜR INFEKTIONSFORSCHUNG GMBH, priority 2022, published 2026).

How the values were obtained:
[1] = molecular target: S. aureus Alpha hemolysin (Staphylococcus aureus, UniProt P09616); test: cell-based
[2] = molecular target: hemolysin alpha from Staphylococcus aureus (Staphylococcus aureus, UniProt P09616); test: cell-based
Sequence of hemolysin alpha from Staphylococcus aureus (P09616 27-319 limits assumed): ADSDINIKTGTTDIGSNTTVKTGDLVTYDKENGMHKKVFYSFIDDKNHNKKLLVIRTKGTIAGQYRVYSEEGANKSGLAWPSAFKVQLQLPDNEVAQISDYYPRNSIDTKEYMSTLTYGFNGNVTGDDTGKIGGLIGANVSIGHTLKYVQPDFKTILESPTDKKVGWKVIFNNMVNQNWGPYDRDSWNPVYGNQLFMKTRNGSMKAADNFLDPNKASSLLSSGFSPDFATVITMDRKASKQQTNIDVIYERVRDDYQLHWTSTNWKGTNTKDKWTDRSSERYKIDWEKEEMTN

Sequence of S. aureus Alpha hemolysin (P09616 27-319 limits assumed): as above

Row | SMILES | IC50 [1] | IC50 [2]
1 | Cc1nc2cc(-c3ccc(NS(=O)(=O)c4nc5[nH]c(=O)c(=O)[nH]c5cc4C)cc3Cl)cnc2o1 [Compound 39, N-(3-chloro-4-(2-methyloxazolo[5,4-b]pyridin-6-yl)phenyl)-7-methyl-2,3-dioxo-1,2,3,4-tetrahydropyrido[2,3-b]pyrazine-6-sulfonamide] | 30 to 100 nM | < 30 nM
2 | Cc1nc2cc(-c3ccc(NS(=O)(=O)c4nc5[nH]c(=O)c(=O)[nH]c5cc4C)cc3C)ccc2o1 [Compound 40, 7-methyl-N-(3-methyl-4-(2-methylbenzo[d]oxazol-5-yl)phenyl)-2,3-dioxo-1,2,3,4-tetrahydropyrido[2,3-b]pyrazine-6-sulfonamide] | 30 to 100 nM | < 30 nM
3 | Cc1cc2[nH]c(=O)c(=O)[nH]c2nc1S(=O)(=O)Nc1ccc(-c2ccc3oc(C4CC4)nc3c2)c(Cl)c1 [Compound 41, N-(3-chloro-4-(2-cyclopropylbenzo[d]oxazol-5-yl)phenyl)-7-methyl-2,3-dioxo-1,2,3,4-tetrahydropyrido[2,3-b]pyrazine-6-sulfonamide] | 30 to 100 nM | < 30 nM
